Measurements from PubChem BioAssay AID1963862 (Molecular Pharmacology Branch, DTP, NCI, 2024).

Tested on: KRAS patient-derived spheroids with HUVEC/MSC, viability
Test: Anticancer human tumor 941728-121-R-J1-PDC patient-derived lung adenocarcinoma cell line growth inhibition [KRAS2]
Conditions: for IC50: curve of first compound; for viability, T/C: stronger effect = lower value
Method in brief: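 KRAS-mutant tumor cells were grown as spheroids with HUVEC endothelial cells and human MSCs as stroma. Targeted agents were tested alone and with KRAS pathway inhibitors. Doses started at or near clinical Cmax, or 10 microM, descending half-log.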

[1] = second compound 0.1 µM, first compound 0.00316 µM
[2] = second compound 0.1 µM, first compound 0.01 µM
[3] = second compound 0.1 µM, first compound 0.0316 µM
[4] = second compound 0.1 µM, first compound 0.1 µM
[5] = second compound 0.1 µM, first compound 0.316 µM
[6] = second compound 0.1 µM, first compound 1 µM
[7] = second compound 0.316 µM, first compound 0.00316 µM
[8] = second compound 0.316 µM, first compound 0.01 µM
[9] = second compound 0.316 µM, first compound 0.0316 µM
[10] = second compound 0.316 µM, first compound 0.1 µM
[11] = second compound 0.316 µM, first compound 0.316 µM
[12] = second compound 0.316 µM, first compound 1 µM
[13] = second compound 1 µM, first compound 0.00316 µM
[14] = second compound 1 µM, first compound 0.01 µM
[15] = second compound 1 µM, first compound 0.0316 µM
[16] = second compound 1 µM, first compound 0.1 µM
[17] = second compound 1 µM, first compound 0.316 µM
[18] = second compound 1 µM, first compound 1 µM
[19] = second compound 3.16 µM, first compound 0.00316 µM
[20] = second compound 3.16 µM, first compound 0.01 µM
[21] = second compound 3.16 µM, first compound 0.0316 µM
[22] = second compound 3.16 µM, first compound 0.1 µM
[23] = second compound 3.16 µM, first compound 0.316 µM
[24] = second compound 3.16 µM, first compound 1 µM
[25] = second compound 10 µM, first compound 0.00316 µM
[26] = second compound 10 µM, first compound 0.01 µM
[27] = second compound 10 µM, first compound 0.0316 µM
[28] = second compound 10 µM, first compound 0.1 µM
[29] = second compound 10 µM, first compound 0.316 µM
[30] = second compound 10 µM, first compound 1 µM
[31] = second compound 0.1 µM, first compound 3.16 µM
[32] = second compound 0.316 µM, first compound 3.16 µM
[33] = second compound 1 µM, first compound 3.16 µM
[34] = second compound 3.16 µM, first compound 3.16 µM
[35] = second compound 10 µM, first compound 3.16 µM
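Note: spheroids exposed to agents for seven days before readout.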

Row | SMILES | IC50 (second compound 0.1 µM) [nM] | IC50 (second compound 0.316 µM) [nM] | IC50 (second compound 1 µM) [nM] | IC50 (second compound 3.16 µM) [nM] | IC50 (second compound 10 µM) [nM] | viability, T/C [2] [%] | viability, T/C [3] [%] | viability, T/C [4] [%] | viability, T/C [5] [%] | viability, T/C [6] [%] | viability, T/C [8] [%] | viability, T/C [9] [%] | viability, T/C [10] [%] | viability, T/C [11] [%] | viability, T/C [15] [%] | viability, T/C [16] [%] | viability, T/C [21] [%] | viability, T/C [22] [%] | viability, T/C [27] [%] | viability, T/C [28] [%] | other results
1 | CCN1CCN(Cc2ccc(Nc3ncc(F)c(-c4cc(F)c5nc(C)n(C(C)C)c5c4)n3)nc2)CC1 + C=CC(=O)N1CCN(c2nc(=O)n(-c3c(C)ccnc3C(C)C)c3nc(-c4c(O)cccc4F)c(F)cc23)C(C)C1 | < 3.16 | < 3.16 | < 3.16 | < 3.16 | < 3.16 | 18.3 | 16.5 | 15.9 | 15.1 | 18.5 | 18.1 | 17.1 | 16.8 | 14.7 | 19.5 | 17.1 | 19.6 | 18.9 | 25 | 29.8 | viability, T/C [1]: 17.4%; viability, T/C [7]: 19.1%; viability, T/C [12]: 15.9%; viability, T/C [13]: 22.2%; viability, T/C [14]: 22.2%; viability, T/C [17]: 17.2%; viability, T/C [18]: 19.8%; viability, T/C [19]: 22.7%; viability, T/C [20]: 24.2%; viability, T/C [23]: 21.9%; viability, T/C [24]: 19.2%; viability, T/C [25]: 27.8%; viability, T/C [26]: 29.9%; viability, T/C [29]: 27.9%; viability, T/C [30]: 16.3%
2 | CC1COCCN1c1cc(-c2ccnn2C)c2ccnc(-c3ccn[nH]3)c2n1 (stereo not given) + COc1cc2nc(C)nc(NC(C)c3cc(N)cc(C(F)(F)F)c3)c2cc1OC1CCOC1 | 25.8 | 30.7 | 14.5 | < 10 | < 10 | 56 | 49.5 | 39.9 | 33.9 | 26.8 | 58.2 | 49.5 | 36.8 | 27.2 | 42.7 | 32.9 | 32 | 25.4 | 21.6 | 21.9 | viability, T/C [31]: 20.3%; viability, T/C [12]: 21.9%; viability, T/C [32]: 23.6%; viability, T/C [14]: 53.6%; viability, T/C [17]: 27.9%; viability, T/C [18]: 22.5%; viability, T/C [33]: 18.6%; viability, T/C [20]: 36.3%; viability, T/C [23]: 18.2%; viability, T/C [24]: 8.31%; viability, T/C [34]: 15.9%; viability, T/C [26]: 17.4%; viability, T/C [29]: 11.4%; viability, T/C [30]: 9.32%; viability, T/C [35]: 6.09%
3 | O=C(c1cc(Cc2n[nH]c(=O)c3ccccc23)ccc1F)N1CCN(C(=O)C2CC2)CC1 + CC1OCC2(CCN(c3cnc(Sc4ccnc(N)c4Cl)c(N)n3)CC2)C1N | < 31.6 | < 31.6 | 87.3 | < 31.6 | < 31.6 |  | 50.3 | 47.7 | 48.3 | 53.1 |  | 41.9 | 45.4 | 52.8 | 65.1 | 45 | 31.9 | 36.3 | 26.1 | 22.3 | viability, T/C [31]: 62.1%; viability, T/C (second compound 0.1 µM, first compound 10 µM): 69.7%; viability, T/C [12]: 53.7%; viability, T/C [32]: 57.8%; viability, T/C (second compound 0.316 µM, first compound 10 µM): 60.7%; viability, T/C [17]: 45.7%; viability, T/C [18]: 41.6%; viability, T/C [33]: 49%; viability, T/C (second compound 1 µM, first compound 10 µM): 58.6%; viability, T/C [23]: 35.3%; viability, T/C [24]: 38.2%; viability, T/C [34]: 41.3%; viability, T/C (second compound 3.16 µM, first compound 10 µM): 45.7%; viability, T/C [29]: 29.6%; viability, T/C [30]: 28.5%; viability, T/C [35]: 35.1%; viability, T/C (second compound 10 µM, first compound 10 µM): 29.3%
4 | CC(C)n1nc(-c2ccc3oc(N)nc3c2)c2c(N)ncnc21 + C=CC(=O)N1CCN(c2nc(=O)n(-c3c(C)ccnc3C(C)C)c3nc(-c4c(O)cccc4F)c(F)cc23)C(C)C1 | < 0.316 | < 0.316 | < 0.316 | < 0.316 | < 0.316 | 5.92 | 4.43 | 3.9 |  |  | 6.98 | 4.02 | 3.22 |  | 4.43 | 5.61 | 6 | 6.12 | 11.3 | 11.2 | viability, T/C (second compound 0.1 µM, first compound 0.000316 µM): 13.2%; viability, T/C (second compound 0.1 µM, first compound 0.001 µM): 17%; viability, T/C [1]: 8.16%; viability, T/C (second compound 0.316 µM, first compound 0.000316 µM): 13.8%; viability, T/C (second compound 0.316 µM, first compound 0.001 µM): 11.7%; viability, T/C [7]: 10.2%; viability, T/C (second compound 1 µM, first compound 0.000316 µM): 15%; viability, T/C (second compound 1 µM, first compound 0.001 µM): 11%; viability, T/C [13]: 9.95%; viability, T/C [14]: 7.7%; viability, T/C (second compound 3.16 µM, first compound 0.000316 µM): 14.2%; viability, T/C (second compound 3.16 µM, first compound 0.001 µM): 16.4%; viability, T/C [19]: 13.3%; viability, T/C [20]: 9.65%; viability, T/C (second compound 10 µM, first compound 0.000316 µM): 17.3%; viability, T/C (second compound 10 µM, first compound 0.001 µM): 16.8%; viability, T/C [25]: 16.5%; viability, T/C [26]: 15.2%
